As usually defined, the EC50 is the midpoint of the concentration-response curve.

The source of these data is patent US10913727B2, “Modulators of the integrated stress pathway” (Calico Life Sciences LLC, priority 2016, dated 2021).

The test deals with HEK293T cells carrying the ATF4 luciferase reporter. Description: ATF4-Luc assay, in vitro model of Vanishing Cell White Matter Disease (VWMD). The settings on record: Homo sapiens, HEK-293T, 1 μg/mL tunicamycin, 7 hours, One Glo luminescence. It is filed as cell-based. As for the experimental part:
In order to test exemplary compounds of the invention in a cellular context, a stable VWMD cell line was first constructed. The ATF4 reporter was prepared by fusing the human full-length ATF4 5′-UTR (NCBI Accession No. BC022088.2) in front of the firefly luciferase (FLuc) coding sequence lacking the initiator methionine as described in Sidrauski et al (eLife 2013). The construct was used to produce recombinant retroviruses using standard methods and the resulting viral supernatant was used to transduce HEK293T cells, which were then subsequently selected with puromycin to generate a stable cell line.
HEK293T cells carrying the ATF4 luciferase reporter were plated on polylysine coated 384-well plates (Greiner Bio-one) at 30,000 cells per well. Cells were treated the next day with 1 μg/mL tunicamycin and 200 nM of a compound of Formula (I) for 7 hours. Luminescence was measured using One Glo (Promega) as specified by the manufacturer. Cells were maintained in DMEM with L-glutamine supplemented with 10% heat-inactivated FBS (Gibco) and Antibiotic-Antimycotic solution (Gibco).
Table 2 below summarizes the EC50 data obtained using the ATF4-Luc assay for exemplary compounds of the invention.
For the compound `O=C(COc1ccc(Cl)c(F)c1)NC12CC(NC(=O)c3cc4n(n3)CCCN4)(C1)C2` [Compound 125, N-{3-[2-(4-chloro-3-fluorophenoxy)acetamido]bicyclo[1.1.1]pentan-1-yl}-4,5,6,7-tetrahydropyrazolo[1,5-a]pyrimidine-2-carboxamide], the EC50 was more than 2000 nM. Turning to `O=C(COc1ccc(Cl)c(F)c1)NC12CC(NC(=O)c3cnc(C4CCC(F)(F)CC4)o3)(C1)C2` [Compound 126, N-{3-[2-(4-chloro-3-fluorophenoxy)acetamido]bicyclo[1.1.1]pentan-1-yl}-2-(4,4-difluorocyclohexyl)-1,3-oxazole-5-carboxamide], the EC50 lay in the range of 50 to 250 nM. The result for `O=C(COc1ccc(Cl)c(F)c1)NC12CC(Nc3ccc(C(F)(F)F)nn3)(C1)C2` [Compound 127, 2-(4-chloro-3-fluorophenoxy)-N-(3-{[6-(trifluoromethyl)pyridazin-3-yl]amino}bicyclo[1.1.1]pentan-1-yl)acetamide] reads more than 2000 nM. The result for `O=C(COc1ccc2c(c1)OC(F)(F)O2)NC12CC(NC(=O)c3ccc(C(=O)O)cc3)(C1)C2` [Compound 128, 4-[(3-{2-[(2,2-difluoro-2H-1,3-benzodioxol-5-yl)oxy]acetamido}bicyclo[1.1.1]-pentan-1-yl)carbamoyl]benzoic acid] reads more than 2000 nM. As for `O=C(COc1ccc(Cl)c(F)c1)NC12CC(NC(=O)c3ccccn3)(C1)C2` [Compound 129, N-{3-[2-(4-chloro-3-fluorophenoxy)acetamido]bicyclo[1.1.1]pentan-1-yl}pyridine-2-carboxamide], the figure is 50 to 250 nM; as for `O=C(COc1ccc(Cl)c(F)c1)NC12CC(NC(=O)c3cccnc3)(C1)C2` [Compound 130, N-{3-[2-(4-chloro-3-fluorophenoxy)acetamido]bicyclo[1.1.1]pentan-1-yl}pyridine-3-carboxamide], 50 to 250 nM. On to `Cc1cnc(C(=O)NC23CC(NC(=O)COc4ccc(Cl)c(Cl)c4)(C2)C3)cn1` [Compound 131, N-{3-[2-(3,4-dichlorophenoxy)acetamido]bicyclo[1.1.1]pentan-1-yl}-5-methylpyrazine-2-carboxamide], for which the EC50 lay in the range of 50 to 250 nM. As for `O=C(COc1ccc(Cl)c(F)c1)NC12CC(NC(=O)c3ccc(OC(F)(F)F)nc3)(C1)C2` [Compound 132, N-{3-[2-(4-chloro-3-fluorophenoxy)acetamido]bicyclo[1.1.1]pentan-1-yl}-6-(trifluoromethoxy)pyridine-3-carboxamide], the figure is 50 to 250 nM.

As to `O=C(COc1ccc(Cl)c(F)c1)NC12CC(NC(=O)c3cnc(C(F)(F)F)nc3)(C1)C2` [Compound 133, N-{3-[2-(4-chloro-3-fluorophenoxy)acetamido]bicyclo[1.1.1]pentan-1-yl}-2-(trifluoromethyl)pyrimidine-5-carboxamide], the concentration for a half-maximal effect (EC50) was 1000 to 2000 nM.

For `O=C(COc1ccc(Cl)c(F)c1)NC12CC(NC(=O)c3cnc(C(F)F)cn3)(C1)C2` [Compound 134, N-{3-[2-(4-chloro-3-fluorophenoxy)acetamido]bicyclo[1.1.1]pentan-1-yl}-5-(difluoromethyl)pyrazine-2-carboxamide], the EC50 is less than 50 nM. As for `CCCCc1ccc(C(=O)NC23CC(NC(=O)COc4ccc(Cl)c(F)c4)(C2)C3)nc1` [Compound 135, 5-butyl-N-{3-[2-(4-chloro-3-fluorophenoxy)acetamido]bicyclo[1.1.1]pentan-1-yl}pyridine-2-carboxamide], the figure is 50 to 250 nM. The result for `Cc1cnc(C(=O)NC23CC(NC(=O)COc4ccc(Cl)cc4)(C2)C3)cn1` [Compound 136, N-{3-[2-(4-chlorophenoxy)acetamido]bicyclo[1.1.1]pentan-1-yl}-5-methylpyrazine-2-carboxamide] reads 250 to 1000 nM; that for `Cc1ccc(C(=O)NC23CC(NC(=O)COc4ccc(Cl)c(F)c4)(C2)C3)nn1` [Compound 137, N-{3-[2-(4-chloro-3-fluorophenoxy)acetamido]bicyclo[1.1.1]pentan-1-yl}-6-methylpyridazine-3-carboxamide], 1000 to 2000 nM. Regarding `O=C(COc1ccc(Cl)c(F)c1)NC12CC(NC(=O)c3cnc(C4=CCOCC4)o3)(C1)C2` [Compound 138, N-{3-[2-(4-chloro-3-fluorophenoxy)acetamido]bicyclo[1.1.1]pentan-1-yl}-2-(3,6-dihydro-2H-pyran-4-yl)-1,3-oxazole-5-carboxamide], the EC50 fell in the range of 50 to 250 nM.

Consider `O=C(COc1ccc(Cl)c(F)c1)NC12CC(NC(=O)c3cnc(C4CCOCC4)o3)(C1)C2` [Compound 139, N-{3-[2-(4-chloro-3-fluorophenoxy)acetamido]bicyclo[1.1.1]pentan-1-yl}-2-(oxan-4-yl)-1,3-oxazole-5-carboxamide], for which the EC50 was in the range of 250 to 1000 nM. For `Cc1ccc(C(=O)NC23CC(NC(=O)COc4ccc(Cl)c(F)c4)(C2)C3)cn1` [Compound 140, N-{3-[2-(4-chloro-3-fluorophenoxy)acetamido]bicyclo[1.1.1]pentan-1-yl}-6-methylpyridine-3-carboxamide], the EC50 was in the range of 250 to 1000 nM.

Regarding `COc1ccc(C(=O)NC23CC(NC(=O)COc4ccc(Cl)c(F)c4)(C2)C3)nc1` [Compound 141, N-{3-[2-(4-chloro-3-fluorophenoxy)acetamido]bicyclo[1.1.1]pentan-1-yl}-5-methoxypyridine-2-carboxamide], the EC50 lay in the range of 250 to 1000 nM. Consider `Cc1cnc(C(=O)NC23CCC(NC(=O)COc4ccc(Cl)c(Cl)c4)(C2)C3)cn1` [Compound 142, N-{4-[2-(3,4-dichlorophenoxy)acetamido]bicyclo[2.1.1]hexan-1-yl}-5-methylpyrazine-2-carboxamide], for which the EC50 lay in the range of 250 to 1000 nM. As for `O=C(COc1ccc(Cl)c(F)c1)NC12CC(NC(=O)c3ccc(C4CC4)cn3)(C1)C2` [Compound 143, N-{3-[2-(4-chloro-3-fluorophenoxy)acetamido]bicyclo[1.1.1]pentan-1-yl}-5-cyclopropylpyridine-2-carboxamide], the figure is 50 to 250 nM; as for `O=C(COc1ccc(Cl)c(Cl)c1)NC12CC(NC(=O)c3ccc(OC(F)(F)F)cn3)(C1)C2` [Compound 144, N-{3-[2-(3,4-dichlorophenoxy)acetamido]bicyclo[1.1.1]pentan-1-yl}-5-(trifluoromethoxy)pyridine-2-carboxamide], less than 50 nM. As for `CCc1ccc(C(=O)NC23CC(NC(=O)COc4ccc(Cl)c(F)c4)(C2)C3)nc1` [Compound 145, N-{3-[2-(4-chloro-3-fluorophenoxy)acetamido]bicyclo[1.1.1]pentan-1-yl}-5-ethylpyridine-2-carboxamide], the figure is 50 to 250 nM. As to `Cc1ccc(C(=O)NC23CC(NC(=O)COc4ccc(Cl)c(F)c4)(C2)C3)nc1` [Compound 146, N-{3-[2-(4-chloro-3-fluorophenoxy)acetamido]bicyclo[1.1.1]pentan-1-yl}-5-methylpyridine-2-carboxamide], the EC50 lay in the range of 50 to 250 nM. For `O=C(COc1ccc(Cl)c(Cl)c1)NC12CC(NC(=O)c3ccc(OC(F)(F)F)nc3)(C1)C2` [Compound 147, N-{3-[2-(3,4-dichlorophenoxy)acetamido]bicyclo[1.1.1]pentan-1-yl}-6-(trifluoromethoxy)pyridine-3-carboxamide], the EC50 was in the range of 50 to 250 nM. With `CC(=O)N1CCC(c2ncc(C(=O)NC34CC(NC(=O)COc5ccc(Cl)c(F)c5)(C3)C4)o2)CC1` [Compound 148, 2-(1-acetylpiperidin-4-yl)-N-{3-[2-(4-chloro-3-fluorophenoxy)acetamido]bicyclo[1.1.1]pentan-1-yl}-1,3-oxazole-5-carboxamide], the EC50 was more than 2000 nM. Regarding `CC(=O)N1CCC(c2ncc(C(=O)NC34CC(NC(=O)COc5ccc(Cl)c(Cl)c5)(C3)C4)o2)CC1` [Compound 149, 2-(1-acetylpiperidin-4-yl)-N-{3-[2-(3,4-dichlorophenoxy)acetamido]bicyclo[1.1.1]pentan-1-yl}-1,3-oxazole-5-carboxamide], the EC50 lay within 1000 to 2000 nM. The result for `CC(C)(C)OC(=O)N1CCC=C(c2ncc(C(=O)NC34CC(NC(=O)COc5ccc(Cl)c(F)c5)(C3)C4)o2)C1` [Compound 150, tert-butyl 5-[5-({3-[2-(4-chloro-3-fluorophenoxy)acetamido]bicyclo[1.1.1]pentan-1-yl}carbamoyl)-1,3-oxazol-2-yl]-3,6-dihydropyridine-1(2H)-carboxylate] reads 50 to 250 nM; that for `CC(=O)N1CC=C(c2ncc(C(=O)NC34CC(NC(=O)COc5ccc(Cl)c(F)c5)(C3)C4)o2)CC1` [Compound 151, 2-(1-acetyl-1,2,3,6-tetrahydropyridin-4-yl)-N-{3-[2-(4-chloro-3-fluorophenoxy)acetamido]bicyclo[1.1.1]pentan-1-yl}-1,3-oxazole-5-carboxamide], more than 2000 nM; that for `O=C(COc1ccc(Cl)c(F)c1)NC12CC(NC(=O)c3ccc(OC(F)F)cn3)(C1)C2` [Compound 152, N-{3-[2-(4-chloro-3-fluorophenoxy)acetamido]bicyclo[1.1.1]pentan-1-yl}-5-(difluoromethoxy)pyridine-2-carboxamide], 50 to 250 nM. The result for `O=C(COc1ccc(Cl)c(Cl)c1)NC12CC(NC(=O)c3ccc(OC(F)F)cn3)(C1)C2` [Compound 153, N-{3-[2-(3,4-dichlorophenoxy)acetamido]bicyclo[1.1.1]pentan-1-yl}-5-(difluoromethoxy)pyridine-2-carboxamide] reads 50 to 250 nM; that for `COc1ccc(C(=O)NC23CC(NC(=O)COc4ccc(Cl)c(F)c4)(C2)C3)cn1` [Compound 154, N-{3-[2-(4-chloro-3-fluorophenoxy)acetamido]bicyclo[1.1.1]pentan-1-yl}-6-methoxypyridine-3-carboxamide], 250 to 1000 nM.
